Results from paper PMC7573392, “Monitoring Allosteric Interactions with CXCR4 Using NanoBiT Conjugated Nanobodies” (Cell Chemical Biology, 2020).
One block for each compound: values may come before it.

Assays:
LgBiT-CXCR4 [1] = molecular target: T1, LgBiT-CXCR4 (Homo sapiens, UniProt P61073); assay: NanoBiT association kinetic measurements (complemented luminescence) in HEK293 cells stably expressing LgBiT-CXCR4; format: binding; conditions: KD = koff/kon at LgBiT-CXCR4
T1 construct: GSSG linker and TEV recognition site (EDLYFQS), between LgBiT and CXCR4 (N); expressed in transfected cells; whole cells in A1-A4, isolated membranes in A9/A10
Protocol: Cells (30,000 per well) were plated in white 96-well poly-D-lysine coated plates (10 μg/ml in PBS) as described above. After 24 hours, media was removed and replaced with 50 μl HBSS containing furimazine (1:400 final concentration) and incubated at 37°C for 10 minutes and basal luminescence was measured. […] The resulting luminescence was measured over 60 minutes at 37°C. Luminescence was measured using the PHERAstar FS plate reader.
Nanobody binding association kinetic data were fitted to the following mono-exponential association function: Y=Ymax(1−e^−kobs.t) where Ymax is the specific binding at infinite time, t is the time of incubation, and kobs is the rate constant for the observed rate of association.
kon and koff values were determined by simultaneously fitting nanobody binding association kinetic curves obtained at different nanobody concentrations (L) to the equation above with the relationship between kobs and the two kinetic binding rate constants kon and koff given by: kon=kobs−koff/L
Kinetically determined nanobody KD values were determined with the following equation: KD=koff/kon

LgBiT-CXCR4 [2] = molecular target: T1, LgBiT-CXCR4; assay: NanoBiT saturation binding (complemented luminescence) in HEK293 cells stably expressing LgBiT-CXCR4
Protocol: Saturation binding with VUN400-HiBiT was performed on HEK 293 cells stably expressing the LgBiT-CXCR4 receptor. Cells were plated at 30,000 cells/well in white 96-well plates previously coated with poly-D-lysine (10 μg/ml in PBS) in 100 μl complete media (DMEM with 10% FCS). After 24 hours, the media was removed and replaced with 100 μl HBSS containing VUN400-HiBiT within the range of 4-500 nM. Where used, CXCL12, AMD3100 or IT1t were also added at this point. The plate was incubated for two hours at 37°C. Furimazine (1:400 final concentration) was added to each well and the plate was incubated for a further 15 minutes at 37°C. Luminescence was measured using the PHERAstar FS plate reader.
Saturation binding curves of VUN400-HiBiT were fitted using the following equation: Specificbinding=Bmax×[B]/[B]+KD where Bmax is the maximal specific binding, [B] is the concentration of VUN400-HiBiT, and KD is the equilibrium dissociation constant (nM).

LgBiT-CXCR4 [3] = molecular target: T1, LgBiT-CXCR4; assay: NanoBiT nanobody displacement binding assay, whole HEK293 cells expressing LgBiT-CXCR4; conditions: 20 nM VUN400-HiBiT
Protocol: (§1) Full nanobody displacement assays were performed in HEK293 cells stably expressing either the LgBiT-CXCR4 or SNAP-CXCR4 constructs. Cells (30,000 per well) were plated in white 96-well poly-D-lysine coated plates as described above. After 24 hours, media was removed and replaced with 100 μl HBSS. Increasing concentrations of displacing ligands were added to the cells. […] The cells were incubated at 37°C for 2 and a half hours in total. […] Furimazine (1:400 final concentration) was added to each well and the plate was incubated for a further 15 minutes at 37°C. Luminescence was measured using the PHERAstar FS plate reader.

[4] = system: T2, endogenous, untagged CXCR4; assay: Nanobody displacement assay in Jurkat T cells (endogenous CXCR4); format: binding, human; conditions: 100 nM VUN400-HiBiT with competing ligand 2 h, washed, exogenous LgBiT added, p < 0.05
T2 construct: these cells express high levels of CXCR4 endogenously; host or cells: Jurkat T cells (clone E6-1)
Protocol: Nanobody displacement assays in T-cells were performed by seeding 100,000 Jurkat cells per well into V-bottom 96-well plates in 100μl warm HBSS. Cells were treated with 100 nM VUN400-HiBiT and competing ligands simultaneously and incubated for 2 hours at 37°C. The cells were pelleted by centrifugation at 300g for 5 minutes and the supernatant removed and replaced with 200 μl fresh HBSS. Cells were resuspended via shaking at 1000 r.p.m on an orbital plate shaker for 2 minutes. This wash step was repeated two more times to remove unbound VUN400-HiBiT. The cells were treated with 20 nM exogenous LgBiT and furimazine (1:400 final concentration) and transferred to white 96-well plates and luminescence read using a PHERAstar FS plate reader.

SNAP-CXCR4 [5] = molecular target: T3, SNAP-CXCR4 (Homo sapiens, UniProt P61073); assay: NanoBiT nanobody displacement binding assay, whole HEK293 cells expressing SNAP-CXCR4 (exogenous LgBiT added after washing); set-up: expressed in transfected cells; host or cells: HEK293G cells stably expressing SNAP-CXCR4 (gift of Dr. J. Goulding, University of Nottingham); conditions: 20 nM VUN400-HiBiT
Protocol: as §1

LgBiT-CXCR4 [6] = molecular target: T1, LgBiT-CXCR4; assay: NanoBRET saturation binding at complemented LgBiT-CXCR4 in HEK293 cells; conditions: non-specific binding defined with 10 μM AMD3100, 2 h 37°C
Protocol: Saturation NanoBRET binding assays were performed on HEK 293 cells stably expressing the LgBiT-CXCR4 receptor. Cells were plated at 30,000 cells/well in white 96-well plates (Greiner) previously coated with 50 μl poly-D-lysine (mol wt: 70-150 kDa; 10 μg/ml in PBS) in 100 μl complete media (DMEM with 10% FCS). After 24 hours, the media was removed from each well and replaced with 100 μl HEPES-buffered saline solution (HBSS; 145 mM NaCl, 5 mM KCl, 1.3 mM CaCl2, 1 mM MgSO4, 10 mM HEPES, 2 mM sodium pyruvate, 1.5 mM NaHCO3, 10 mM D-glucose, pH 7.45) containing 10 nM purified HiBiT-HaloTag (Promega) and incubated at 37°C for 30 minutes. This was sufficient time for HiBiT-LgBiT complementation to occur, forming the fully complemented NanoLuc enzyme. The HBSS was then aspirated and the cells washed three times with 100 μl HBSS. […] Cells were incubated for 2 hours at 37°C in the dark. The NanoLuc substrate furimazine (Promega) was added to each well (1:400 final concentration) and allowed to equilibrate for 5 minutes at 37°C prior to reading. Luminescence signals were measured at two wavelengths using a PHERAstar FS plate reader (BMG Labtech, UK) at room temperature. Filtered light was simultaneously measured using 460 nm (80-nm bandpass) and >610 nm longpass filters. The resulting BRET ratio was calculated by dividing the >610 nm emission by the 460 nm emission.

LgBiT-CXCR4 [7] = molecular target: T1, LgBiT-CXCR4; assay: CXCL12-AF647 dissociation kinetics (NanoBRET) at complemented LgBiT-CXCR4; format: binding
Protocol: Nanobody and CXCL12-AF647 dissociation kinetic measurements were performed in membranes isolated from HEK293 LgBiT-CXCR4 cells. Briefly, 10 μg LgBiT-CXCR4 membranes were plated in white 96-well plates containing furimazine (1:400 final concentration) and incubated at 37°C for 10 minutes. […] Increasing concentrations of VUN400-HiBiT or CXCL12-AF647 were added to the wells and luminescence (VUN400-HiBiT) or the BRET ratio (CXCL12-AF647) were measured. […] The BRET ratio was calculated as described above. Both the BRET ratio and luminescence were measured using the PHERAstar FS plate reader.
For nanobody dissociation experiments were fitted to the following mono-exponential decay equation: Y=(Y0−NS)^−k.t+NS where Y0 is the nanobody binding at the time of ligand addition (t0), NS is the nanobody bound at infinite time, and k is the rate constant of nanobody dissociation.

SNAP-CXCR4 [8] = molecular target: T3, SNAP-CXCR4; assay: TR-FRET saturation ligand binding at SNAP-CXCR4; set-up: expressed in transfected cells; host or cells: HEK293G cells stably expressing SNAP-CXCR4 (gift of Dr. J. Goulding, University of Nottingham)
Text: Saturation binding of VUN400-HiBiT a t th e
experiment is representative of five separate experiments.
Supplementary Figure 2 (related to Figure 5).
This single experiment is representative of five separate experiments.

[9] = (a) pre-incubation with VUN400-HiBiT
[10] = (c) pre-incubation with ligands

T1 sequence (P61073 2-352 limits assumed): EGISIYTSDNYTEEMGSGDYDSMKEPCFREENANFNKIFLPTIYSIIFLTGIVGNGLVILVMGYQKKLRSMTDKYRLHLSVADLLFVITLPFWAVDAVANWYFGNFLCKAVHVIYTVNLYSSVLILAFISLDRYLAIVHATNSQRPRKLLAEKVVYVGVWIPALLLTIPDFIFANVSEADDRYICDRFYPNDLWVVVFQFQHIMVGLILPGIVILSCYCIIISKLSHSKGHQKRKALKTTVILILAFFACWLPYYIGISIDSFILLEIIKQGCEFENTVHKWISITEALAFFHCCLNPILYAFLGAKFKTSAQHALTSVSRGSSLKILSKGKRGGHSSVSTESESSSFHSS
T3 sequence (P61073 whole entry): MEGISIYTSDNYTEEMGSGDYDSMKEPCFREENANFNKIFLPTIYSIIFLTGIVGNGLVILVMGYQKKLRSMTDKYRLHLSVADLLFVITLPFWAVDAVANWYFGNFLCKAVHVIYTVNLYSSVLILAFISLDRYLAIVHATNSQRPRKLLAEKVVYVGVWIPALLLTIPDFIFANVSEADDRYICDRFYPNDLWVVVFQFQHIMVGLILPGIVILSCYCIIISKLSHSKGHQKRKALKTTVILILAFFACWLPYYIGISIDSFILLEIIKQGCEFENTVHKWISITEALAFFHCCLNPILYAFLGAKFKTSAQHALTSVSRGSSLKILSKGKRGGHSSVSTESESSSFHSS

pKD (determined from kinetic rate constants) (LgBiT-CXCR4 [1]): 6.4
saturation binding (in words) (LgBiT-CXCR4 [2]; increasing concentrations added to HEK LgBiT-CXCR4 cells): linear, indicative of low affinity
Compound: HiBiT: purified HiBiT-HaloTag fusion protein, circa 34 kDa (Promega)

prevention of VUN400-HiBiT binding to LgBiT-CXCR4 (LgBiT-CXCR4 [2]; fixed concentration: 100 nM CXCL12, 10 μM AMD3100 or 10 μM IT1t (Figure 3E)): prevented
Maximum Inhibition (% 10 μM AMD3100) (LgBiT-CXCR4 [3]; [9]): 104.4 ± 4.5 % 10 μM AMD3100
Maximum Inhibition (% 10 μM AMD3100) (LgBiT-CXCR4 [3]; (b) simultaneous addition): 96.5 ± 0.4 % 10 μM AMD3100
Maximum Inhibition (% 10 μM AMD3100) (LgBiT-CXCR4 [3]; [10]): 79.9 ± 3.1 ^c % 10 μM AMD3100
Maximum Inhibition (% 10 μM AMD3100) (SNAP-CXCR4 [5]; [9]): 107.1 ± 4.8 % 10 μM AMD3100
Maximum Inhibition (% 10 μM AMD3100) (SNAP-CXCR4 [5]; (b) simultaneous addition): 106.8 ± 11.5 % 10 μM AMD3100
Maximum Inhibition (% 10 μM AMD3100) (SNAP-CXCR4 [5]; [10]): 102.3 ± 3.6 % 10 μM AMD3100
Compound: CC1(C)CN2C(CSC(=NC3CCCCC3)NC3CCCCC3)=CSC2=N1.Cl.Cl [IT1t, N,N’-Dicyclohexylcarbamimidothioic acid (5,6-dihydro-6,6-dimethylimidazo[2,1-b]thiazol-3-yl)methyl ester dihydrochloride]
displacement of VUN400-HiBiT from endogenous CXCR4 [4]: displaced

Compound: CXCL12-AF647: fluorescently labeled CXCL12, fluorescent orthosteric agonist (Almac)
pKD (LgBiT-CXCR4 [6]): 7.80 ± 0.08
koff (LgBiT-CXCR4 [7]; 10 nM CXCL12-AF647, after addition of 1 μM CXCL12): 0.00533 ± 0.0005 s⁻¹
koff (LgBiT-CXCR4 [7]; 10 nM CXCL12-AF647, after addition of 10 μM AMD3100): 0.007 ± 0.00067 s⁻¹
pKD (SNAP-CXCR4 [8]): 7.99 ± 0.10
